Measurements: PubChem BioAssay AID256 (DTP/NCI, 2004)
Where “and” joins values, the source holds several entries; their conditions need not be identical. Equal entries are not always repeated. Inconclusive results and toxic doses are left out. Rule for the calls: active = survival T/C of 150% or more; inactive = T/C below 125% in these data.

Test system: CD2F1 mice, L1210 leukemia ip, survival T/C
Experiment: NCI In Vivo Anticancer Drug Screen. Data for tumor model L1210 Leukemia (intraperitoneal) in CD2F1 (CDF1) mice
Details: higher = longer survival
Summary of the method: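 Vehicle-treated tumor-bearing mice served as controls (C) for compound-treated mice (T). Reported figure is T divided by C.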

[1] = endpoint: mean survival time, dose: 50.0 mg/kg/injection, schedule: Q01DX009 (ip), vehicle: other
[2] = endpoint: mean survival time, dose: 100.0 mg/kg/injection, schedule: Q01DX009 (ip), vehicle: other
[3] = endpoint: mean survival time, dose: 200.0 mg/kg/injection, schedule: Q01DX009 (ip), vehicle: other
[4] = endpoint: mean survival time, dose: 75.0 mg/kg/injection, schedule: Q01DX001 (ip), vehicle: saline
[5] = endpoint: mean survival time, dose: 150.0 mg/kg/injection, schedule: Q01DX001 (ip), vehicle: saline
[6] = endpoint: mean survival time, dose: 300.0 mg/kg/injection, schedule: Q01DX001 (ip), vehicle: saline
[7] = endpoint: mean survival time, dose: 100.0 mg/kg/injection, schedule: Q01DX001 (ip), vehicle: saline with Tween-80
[8] = endpoint: mean survival time, dose: 200.0 mg/kg/injection, schedule: Q01DX001 (ip), vehicle: saline with Tween-80
[9] = endpoint: mean survival time, dose: 400.0 mg/kg/injection, schedule: Q01DX001 (ip), vehicle: saline with Tween-80
[10] = endpoint: mean survival time, dose: 50.0 mg/kg/injection, schedule: Q01DX009 (ip), vehicle: saline with Tween-80
[11] = endpoint: mean survival time, dose: 100.0 mg/kg/injection, schedule: Q01DX009 (ip), vehicle: saline with Tween-80
[12] = endpoint: mean survival time, dose: 100.0 mg/kg/injection, schedule: Q04DX003 (ip), vehicle: saline with Tween-80
[13] = endpoint: mean survival time, dose: 200.0 mg/kg/injection, schedule: Q04DX003 (ip), vehicle: saline with Tween-80
[14] = endpoint: mean survival time, dose: 400.0 mg/kg/injection, schedule: Q04DX003 (ip), vehicle: saline with Tween-80
[15] = endpoint: mean survival time, dose: 50.0 mg/kg/injection, schedule: Q01DX009 (ip), vehicle: saline
[16] = endpoint: mean survival time, dose: 100.0 mg/kg/injection, schedule: Q01DX009 (ip), vehicle: saline
[17] = endpoint: mean survival time, dose: 100.0 mg/kg/injection, schedule: Q04DX003 (ip), vehicle: saline
[18] = endpoint: mean survival time, dose: 200.0 mg/kg/injection, schedule: Q04DX003 (ip), vehicle: saline
[19] = endpoint: mean survival time, dose: 200.0 mg/kg/injection, schedule: Q01DX009 (ip), vehicle: saline with Tween-80
[20] = endpoint: mean survival time, dose: 400.0 mg/kg/injection, schedule: Q01DX009 (ip), vehicle: saline with Tween-80

Measured: T/C

O=C(Nc1cc([N+](=O)[O-])ccc1O)C(O)c1ccccc1 (centres undefined)
inactive: endpoint: mean survival time, dose: 12.5 mg/kg/injection, schedule: Q01DX009 (ip), vehicle: other 95 % of control | endpoint: mean survival time, dose: 25.0 mg/kg/injection, schedule: Q01DX009 (ip), vehicle: other 89 % of control | [1] 86 % of control | [2] 91 % of control | [3] 91 % of control

CN1CCCN(O)C1=O
inactive: endpoint: mean survival time, dose: 37.5 mg/kg/injection, schedule: Q01DX007 (ip), vehicle: saline 94 % of control | endpoint: mean survival time, dose: 75.0 mg/kg/injection, schedule: Q01DX007 (ip), vehicle: saline 92 % of control | endpoint: mean survival time, dose: 150.0 mg/kg/injection, schedule: Q01DX007 (ip), vehicle: saline 94 % of control | endpoint: mean survival time, dose: 300.0 mg/kg/injection, schedule: Q01DX007 (ip), vehicle: saline 100 % of control | endpoint: mean survival time, dose: 600.0 mg/kg/injection, schedule: Q01DX007 (ip), vehicle: saline 100 % of control

O=C1C=CC(=O)c2nc3c(nc21)[nH]c1ccccc13
inactive: [4] 101 % of control | [5] 98 % of control | [6] 97 % of control

OCc1cn2c(c1CO)CCC2
inactive: endpoint: mean survival time, dose: 12.5 mg/kg/injection, schedule: Q01DX009 (ip), vehicle: water 105 % of control | endpoint: mean survival time, dose: 22.0 mg/kg/injection, schedule: Q01DX009 (ip), vehicle: other 108 % of control | endpoint: mean survival time, dose: 25.0 mg/kg/injection, schedule: Q01DX009 (ip), vehicle: water 113 % of control | endpoint: mean survival time, dose: 33.0 mg/kg/injection, schedule: Q01DX009 (ip), vehicle: other 113 % of control | [1] 123 % of control | endpoint: mean survival time, dose: 75.0 mg/kg/injection, schedule: Q01DX009 (ip), vehicle: other 105 % of control

CC(=O)COc1cc(C)cc(C)c1
inactive: [7] 104 % of control | [8] 95 % of control | [9] 101 % of control

O=c1oc2c(ccc3ccccc32)c(O)c1-c1ccccc1
inactive: [10] 103 % of control | [11] 103 % of control

Cc1c(C)c(C)c(CCl)c(C)c1C
inactive: [10] 103 % of control | [11] 103 % of control

O=C(O)c1cc([N+](=O)[O-])cc([N+](=O)[O-])c1
inactive: [12] 97 % of control | [13] 97 % of control | [14] 101 % of control

CNC(=O)SCc1ccc(Cl)cc1
inactive: [12] 98 % of control | [13] 96 % of control | [14] 102 % of control

NC1CCCN(Cc2ccccc2)C1 (centres undefined)
inactive: [4] 95 % of control | [5] 97 % of control | [6] 97 % of control

O=C1CC(=O)C(Br)=C1Br
inactive: endpoint: mean survival time, dose: 0.75 mg/kg/injection, schedule: Q01DX009 (ip), vehicle: saline with Tween-80 95 % of control | endpoint: mean survival time, dose: 1.5 mg/kg/injection, schedule: Q01DX009 (ip), vehicle: saline with Tween-80 95 % of control | endpoint: mean survival time, dose: 3.0 mg/kg/injection, schedule: Q01DX009 (ip), vehicle: saline with Tween-80 90 % of control

CCCCCCCCC(=O)c1ccc(N=Nc2ccc(OCC)cc2)cc1
inactive: [12] 94 % of control | [13] 91 % of control | [14] 89 % of control

COCCCN1CCN(c2ccccc2OC)CC1
inactive: [15] 93 % of control | [16] 88 % of control | [17] 98 % of control | [18] 104 % of control

CCN(CCNc1ccc(C)c2sc3cc(Cl)ccc3c(=O)c12)CC(C)O (centres undefined)
inactive: endpoint: mean survival time, dose: 50.0 mg/kg/injection, schedule: Q01DX001 (ip), vehicle: saline 94 % of control | endpoint: mean survival time, dose: 100.0 mg/kg/injection, schedule: Q01DX001 (ip), vehicle: saline 88 % of control | [17] 94 % of control | endpoint: mean survival time, dose: 200.0 mg/kg/injection, schedule: Q01DX001 (ip), vehicle: saline 94 % of control | [18] 94 % of control | endpoint: mean survival time, dose: 400.0 mg/kg/injection, schedule: Q01DX001 (ip), vehicle: saline 96 % of control | endpoint: mean survival time, dose: 400.0 mg/kg/injection, schedule: Q04DX003 (ip), vehicle: saline 102 % of control

CN(C)c1ccc(/C=N\NC(=O)CNC(=O)Nc2ccc(F)cc2)c(Cl)c1
inactive: [10] 100 % of control | [11] 88 % of control | [19] 92 % of control

CCCCCCCCCCCCNC=O
inactive: endpoint: mean survival time, dose: 25.0 mg/kg/injection, schedule: Q01DX009 (ip), vehicle: saline 100 % of control | [15] 103 % of control | [16] 106 % of control

N#CC(C#N)=Cc1cccc2ccccc12
inactive: endpoint: mean survival time, dose: 50.0 mg/kg/injection, schedule: Q04DX003 (ip), vehicle: Klucel (hydroxypropylcellulose) (HPC) 98 % of control | endpoint: mean survival time, dose: 100.0 mg/kg/injection, schedule: Q04DX003 (ip), vehicle: Klucel (hydroxypropylcellulose) (HPC) 103 % of control | endpoint: mean survival time, dose: 200.0 mg/kg/injection, schedule: Q04DX003 (ip), vehicle: Klucel (hydroxypropylcellulose) (HPC) 101 % of control

COc1ccc2c(c1[N+](=O)[O-])CCCCC2=O
inactive: [1] 100 % of control | [2] 92 % of control | [3] 100 % of control

S=C(S)NN1CCCC1
inactive: endpoint: mean survival time, dose: 25.0 mg/kg/injection, schedule: Q01DX009 (ip), vehicle: saline with Tween-80 101 % of control | [10] 100 % of control | [12] 92 % of control

FCCc1ccccc1
inactive: endpoint: mean survival time, dose: 50.0 mg/kg/injection, schedule: Q04DX003 (ip), vehicle: saline sonified 98 % of control | [7] 97 % of control and 94 % of control | endpoint: mean survival time, dose: 100.0 mg/kg/injection, schedule: Q04DX003 (ip), vehicle: saline sonified 98 % of control | [8] 95 % of control | endpoint: mean survival time, dose: 200.0 mg/kg/injection, schedule: Q04DX003 (ip), vehicle: saline sonified 98 % of control | [9] 103 % of control and 94 % of control

Nc1nc(N)c2[nH]c(-c3ccccc3[N+](=O)[O-])nc2n1
inactive: endpoint: mean survival time, dose: 12.5 mg/kg/injection, schedule: Q01DX005 (ip), vehicle: water 96 % of control | endpoint: mean survival time, dose: 25.0 mg/kg/injection, schedule: Q01DX005 (ip), vehicle: water 89 % of control | endpoint: mean survival time, dose: 50.0 mg/kg/injection, schedule: Q01DX005 (ip), vehicle: water 87 % of control | endpoint: mean survival time, dose: 100.0 mg/kg/injection, schedule: Q01DX005 (ip), vehicle: water 96 % of control | endpoint: mean survival time, dose: 200.0 mg/kg/injection, schedule: Q01DX005 (ip), vehicle: water 96 % of control

C1CCC2C[N-]CCC2C1.C1CCC2C[N-]CCC2C1.C1CCC2C[N-]CCC2C1.C1CCC2C[N-]CCC2C1.[I][Fe][I] (centres undefined)
inactive: [12] 108 % of control | [13] 106 % of control

COc1ccc(Cc2nccc3cc(OC)c(OC)cc23)cc1OC
inactive: endpoint: mean survival time, dose: 9.4 mg/kg/injection, schedule: Q04DX003 (ip), vehicle: water 115 % of control | endpoint: mean survival time, dose: 18.7 mg/kg/injection, schedule: Q04DX003 (ip), vehicle: water 93 % of control | endpoint: mean survival time, dose: 37.5 mg/kg/injection, schedule: Q04DX003 (ip), vehicle: water 96 % of control | endpoint: mean survival time, dose: 50.0 mg/kg/injection, schedule: Q01DX009 (ip), vehicle: water 96 % of control

CC(=O)C(CN(C)C)C(C)=O
inactive: endpoint: mean survival time, dose: 75.0 mg/kg/injection, schedule: Q01DX001 (ip), vehicle: other 106 % of control | endpoint: mean survival time, dose: 150.0 mg/kg/injection, schedule: Q01DX001 (ip), vehicle: other 106 % of control

Cc1ccc(NC(=O)c2ccccc2C(=O)O)cc1C
inactive: [11] 98 % of control | [12] 100 % of control | [19] 95 % of control | [13] 101 % of control | [20] 94 % of control | [14] 103 % of control

O=c1c2nccnc2nc2n1CCCCC2
inactive: [4] 100 % of control | [5] 103 % of control | [6] 103 % of control

CC1=C/C(=N/NC(N)=O)CC(C)C1 (centres undefined)
inactive: [11] 91 % of control | [19] 97 % of control | [20] 98 % of control

COc1ccc2cc(O)ccc2c1
inactive: [11] 96 % of control | [12] 104 % of control | [19] 98 % of control | [13] 113 % of control | [20] 100 % of control | [14] 90 % of control

[N-]=[N+]=NC1CC(n2ccc(=O)[nH]c2=O)OC1COC(c1ccccc1)(c1ccccc1)c1ccccc1 (centres undefined)
inactive: endpoint: median survival time, dose: 12.5 mg/kg/injection, schedule: Q01DX005 (ip), vehicle: saline with Tween-80 96 % of control | endpoint: median survival time, dose: 25.0 mg/kg/injection, schedule: Q01DX005 (ip), vehicle: saline with Tween-80 101 % of control | endpoint: median survival time, dose: 50.0 mg/kg/injection, schedule: Q01DX005 (ip), vehicle: saline with Tween-80 94 % of control | endpoint: median survival time, dose: 100.0 mg/kg/injection, schedule: Q01DX005 (ip), vehicle: saline with Tween-80 95 % of control | endpoint: median survival time, dose: 200.0 mg/kg/injection, schedule: Q01DX005 (ip), vehicle: saline with Tween-80 91 % of control
